Measured values from US8263638B2, “Dosing regimens for ion channel modulating compounds” (priority 2004, dated 2012).

Tested on: atrial fibrillation of 3 to 72 h duration
Experiment: Randomized, double-blind, step-dose, placebo-controlled study in acute atrial fibrillation (Example 2)
Format: in vivo, human
Method: This was a randomized, double-blind, step-dose, placebo-controlled, parallel group study on humans. Fifty-six patients with atrial fibrillation of 3 to 72 h duration were randomized to one of two COMPOUND A dose groups or to placebo. The two COMPOUND A groups were RSD-1 (0.5 mg/kg followed by 1.0 mg/kg) or RSD-2 (2.0 mg/kg followed by 3.0 mg/kg), doses given by intravenous infusion over 10 min. The primary endpoint was termination of atrial fibrillation during a 10-min infusion or the subsequent 30-min. Secondary endpoints included the number of patients in sinus rhythm at 0.5, 1 and 24 h post-infusion and time to conversion to sinus rhythm. […] COMPOUND A converted acute atrial fibrillation to sinus rhythm.
Patients in this study had to have a rhythm of sustained atrial fibrillation (AF) with a duration of 3 to 72 h at the time of randomization. Patients were randomized to one of three groups and in each group received up to two 10-min intravenous infusions, separated by 30 min. Infusions were placebo followed by placebo, 0.5 mg/kg followed by 1.0 mg/kg COMPOUND A, or 2.0 […] COMPOUND A. The second dose in each group was administered only if AF was present 30 min after completion of the first dose. Doses for patients weighing>113 kg were capped as if the patient weight was 113 kg.
A Holter rhythm strip continuously monitored ECG, vital signs (blood pressure and heart rate, BP and HR, respectively) and O2 saturation were recorded every 2 min from the start of infusion to 5 min after, as well as at 15, 30, 60, 120, 240, 360, and 480 min and at discharge and one-week follow-up. Twelve-lead ECGs were obtained before dosing and every minute during infusion to 5 min after, as well as at 15, 30, 60, 120, 240, 360, and 480 min and at discharge, 24 h and one-week follow-up, and at the time of arrhythmia termination or significant rhythm changes. Venous blood samples were drawn for COMPOUND A plasma concentrations at 0, 15, 30, 120, 240, 480 min discharge and at AF termination or significant adverse events.
Fifty-five patients were evaluated for efficacy. Data are presented as mean±SD, median with interquartile range (IQR), all tests were performed as two sided and 95% confidence interval (CI) were produced; p<0.05 was considered statistically significant unless stated otherwise. Analysis of the relationship between termination of AF and treatment was performed using a chi-square analysis. In cases of small cell frequencies, the Fisher's exact test was used. A Cochran-Armitage test statistic with table scores was used to test the ascending dose evaluation of efficacy.
The time to conversion from the start of the first infusion was analyzed by the Cox regression method of event time analysis and one-way ANOVA. Assessment of the significance of time point values and mean change from baseline to each follow-up reading of ECG intervals (QRS, QT, QTc), BP, and HR were made within dose groups using paired t tests, and comparisons among dose groups were made using a one-way ANOVA.

[1] = End infusion 1, 0.5 and 1.0 mg/kg
[2] = End infusion 1, 2.0 and 3.0 mg/kg
[3] = End infusion 2, 0.5 and 1.0 mg/kg
[4] = End infusion 2, 2.0 and 3.0 mg/kg

Structure (SMILES): COc1ccc(CCO[C@@H]2CCCC[C@H]2N2CC[C@@H](O)C2)cc1OC.Cl [COMPOUND A, (1R,2R)-2-[(3R)-hydroxypyrrolidinyl]-1-(3,4-dimethoxyphenethoxy)cyclohexane monohydrochloride]
- net efficacy for conversion of recent onset AF (61% to 5% (placebo)): 56%
- median time for termination of AF from the start of the first infusion (COMPOUND A treatment groups (FIG. 1)): 11 min
- HEART RATE [1]: 104 ± 7 BPM
- QRS [1]: 86 ± 3 ms
- QTc [1]: 419 ± 6 ms
- HEART RATE [2]: 98 ± 5 BPM
- QRS [2]: 95 ± 3 ms
- QTc [2]: 449 ± 9 ms
- HEART RATE [3]: 107 ± 6 BPM
- QRS [3]: 90 ± 6 ms
- QTc [3]: 414 ± 11 ms
- HEART RATE [4]: 104 ± 6 BPM
- QRS [4]: 99 ± 5 ms
- QTc [4]: 447 ± 17 ms
- cumulative AF termination within 30 min of infusion (RSD-1: 0.5 mg/kg followed by 1.0 mg/kg i.v.): 11%
- patients in sinus rhythm (excluding those electrically cardioverted) at 24 h post infusion (RSD-1: 0.5 + 1.0 mg/kg): 56%
- patients in sinus rhythm at 30 min post-infusion (RSD-1: 0.5 + 1.0 mg/kg): 11%
- patients in sinus rhythm at 1 h post infusion (RSD-1: 0.5 + 1.0 mg/kg): 11%
- median time to conversion to sinus rhythm from the start of the first infusion (RSD-1, five eventual responders): 166 min
- patients reporting cardiac disorders (adverse events) (RSD-1 group): 22.2%
- electrical cardioversion attempted within the study period (24 h) (RSD-1 treated): 50%
- electrical cardioversion successful (RSD-1 treated): 100%
- cumulative AF termination within 30 min of infusion (RSD-2: 2.0 mg/kg followed by 3.0 mg/kg i.v.): 61%
- patients in sinus rhythm (excluding those electrically cardioverted) at 24 h post infusion (RSD-2: 2.0 + 3.0 mg/kg): 79%
- patients in sinus rhythm at 30 min post-infusion (RSD-2: 2.0 + 3.0 mg/kg): 56%
- patients in sinus rhythm at 1 h post infusion (RSD-2: 2.0 + 3.0 mg/kg): 53%
- median time to conversion to sinus rhythm from the start of the first infusion (RSD-2, eleven responders): 14 min
- mean heart rate (RSD-2 dose, T1=15 min (baseline mean 106)): 90 beats per min
- median time to termination of AF after start of the first infusion (RSD-2 group): 11 min
- patients reporting cardiac disorders (adverse events) (RSD-2 group): 16.7%
- electrical cardioversion attempted within the study period (24 h) (RSD-2 treated): 22%
- electrical cardioversion successful (RSD-2 treated): 100%
- QT interval, first available ECG records after conversion to sinus rhythm (human, in vivo): 366 ± 28 ms
- QTc interval, first available ECG records after conversion to sinus rhythm (human, in vivo): 427 ± 19 ms
- drug related proarrhythmia (in vivo): no instances
- effect on QTc or QRS intervals compared to placebo (infusion): did not significantly prolong
